Like-named read-outs stand apart in the source and are kept apart here.
Columns and labels:
[1] = biological target: T1, human plasma type α1,3FucT (Homo sapiens, UniProt Q11128); test: Substrate specificity and inhibition study of α1,3FucT (GDP-14C-Fuc transfer assay); type: biochemical; details: for IC50 / Vrel (relative maximal velocities) / Km: 0.1 mM GDP-Fuc; for IC50: 10 mM Mn2+ and 10 mM LacNAc at pH 6.2 and 37° C.; for Vrel (relative maximal velocities): 10 mM MnCl2 and 10 mM Galβ1,4GlcNAc, Galβ1,4GlcNAc = 100; for Km: acceptor substrate, 10 mM MnCl2; for relative maximum velocity (Vrel) based on LacNAc: relative rate at Vmax; for mode of inhibition: versus LacNAc; for inhibition in combination with GDP: GDP present at its IC50 of 0.05 mM, FIG. 3: 34 mM Compound 50, 0.2 mM 14C-GDP-fucose, 20 mM MnCl2, pH 6.2
T1 sequence (Q11128 1-374): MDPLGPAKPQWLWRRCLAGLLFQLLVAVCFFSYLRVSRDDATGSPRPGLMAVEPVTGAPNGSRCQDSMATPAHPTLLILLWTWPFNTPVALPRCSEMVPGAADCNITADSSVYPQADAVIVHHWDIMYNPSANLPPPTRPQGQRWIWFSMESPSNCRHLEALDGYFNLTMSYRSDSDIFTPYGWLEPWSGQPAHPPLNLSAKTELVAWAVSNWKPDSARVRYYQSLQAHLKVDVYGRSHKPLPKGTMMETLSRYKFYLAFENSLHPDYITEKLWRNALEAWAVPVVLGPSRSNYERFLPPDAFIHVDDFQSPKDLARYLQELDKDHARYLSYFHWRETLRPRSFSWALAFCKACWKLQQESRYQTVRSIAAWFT
Experimental: (§1) The assay procedure was essentially the same as described previously [Fukowska-Latallo et al, Gene & Development, 4:1288 (1990)] with some modifications. A stock mixture containing 0.25 mM GDP-^14C-Fuc (5000 cpm/mL), 6.25 mM ATP, 25 mM MnCl2 and 62.5 mM sodium cacodylate buffer, pH 6.2 was mixed freshly and kept on ice. […] The incubation was carried out at 37° C. for 30 to 240 minutes depending upon the acceptor under study. Separate assays in the absence of acceptor were used to correct for background hydrolysis of GDP-Fuc. Upon completion of incubation, 400 μL of a 25 percent (v/v) suspension of QAE-Sephadex was added. […] From the supernatant fluid, 200 μL were extracted and mixed with 10 mL of scintillation cocktail. The radioactivity was counted on a scintillation counter. […] This assay can be run in the absence of ATP.

GalT [2] = biological target: T2, GalT (Bos taurus, UniProt P08037); details: cited from earlier work
T2 construct: purchased Sigma
T2 sequence (P08037 79-402 limits assumed): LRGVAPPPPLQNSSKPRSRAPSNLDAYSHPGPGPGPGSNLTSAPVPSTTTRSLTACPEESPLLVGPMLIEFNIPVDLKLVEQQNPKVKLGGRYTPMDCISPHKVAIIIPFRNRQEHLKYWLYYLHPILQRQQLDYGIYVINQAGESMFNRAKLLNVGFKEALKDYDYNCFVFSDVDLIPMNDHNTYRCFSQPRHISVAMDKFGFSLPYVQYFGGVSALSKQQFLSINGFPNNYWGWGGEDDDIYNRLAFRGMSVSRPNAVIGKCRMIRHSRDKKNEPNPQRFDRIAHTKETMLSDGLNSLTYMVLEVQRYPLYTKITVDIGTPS

α1,3/4Fucosyltransferase = biological target: T3, α1,3/4Fucosyltransferase (Homo sapiens, UniProt P21217); test: Substrate specificity and inhibition study of α1,3/4FucT (GDP-14C-Fuc transfer assay); type: biochemical; details: for Vrel (relative velocities): 0.20 mM GDP-Fuc, 20 mM MnCl2, 10 mM acceptor, Galβ1,4GlcNAc = 100
T3 sequence (P21217 1-361): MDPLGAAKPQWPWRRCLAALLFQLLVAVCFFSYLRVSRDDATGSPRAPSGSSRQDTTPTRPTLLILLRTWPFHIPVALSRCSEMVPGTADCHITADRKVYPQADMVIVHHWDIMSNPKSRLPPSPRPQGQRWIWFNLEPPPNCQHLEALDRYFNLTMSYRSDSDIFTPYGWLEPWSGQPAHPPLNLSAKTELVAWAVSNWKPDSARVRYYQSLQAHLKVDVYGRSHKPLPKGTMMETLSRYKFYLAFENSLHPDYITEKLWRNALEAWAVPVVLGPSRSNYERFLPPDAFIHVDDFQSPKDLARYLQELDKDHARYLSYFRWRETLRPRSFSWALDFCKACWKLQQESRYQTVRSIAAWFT
Experimental: as §1

GalT [3] = biological target: T2, GalT; test: Kinetic study of GalT (rate of LacNAc formation, UDP-14C-Gal); type: biochemical; details: 100 mM cacodylate pH 7.5, 9.3 mM Mn2+, 0.1 mM UDP-Gal, 20° C.
Experimental: Initial velocities of the enzyme reaction were determined by measuring the rate of LacNAc formation with a slight modification of the assay by Pierce et al. [Pierce et al., Anal. Biochem., 102:441 (1980)]. All the reactions were carried out in 100 mM cacodylate buffer (pH 7.5) with fixed concentrations of Mn^2+ (9.3 mm) and UDP-Gal (0.1 mM; 58.5 cpm/pmol of UDP-^14C-Gal) in […] of solution. The reaction was initiated by the addition of GalT (0.05 U, […]; from Sigma) and permitted to stand at 20° C. for 30 minutes. Nonspecific hydrolysis of UDP-Gal was measured by the control reaction in the absence of GalT. The reaction was stopped by passing through a column of QAE-Sephadex ([…]), and eluted by gentle air pressure to remove the unreacted UDP-Gal. The reaction vial was rinsed twice with […] of water each and passed through the resin column. The filtrates were collected and directly transferred into a scintillation vial. The scintillation fluid was added to the vial, and then radioactivity was counted by a liquid scintillation counter. […] Res., 159:315 (1987)] and Ki (0.46±0.06 mM) for UDP. Similarly, IC50 value of UDP for GalT was determined using different concentration of UDP.

| Compound | IC50 [1] | Vrel (relative maximal velocities) [1] | Vrel (relative velocities) (α1,3/4Fucosyltransferase) | further results |
| --- | --- | --- | --- | --- |
| OCC1N[C@@H](CO)C(O)[C@@H]1O (stereo partly shown) | 52 mM | – | – | – |
| CC(=O)N[C@H]1C(O)O[C@H](CO)[C@@H](O)[C@@H]1O (stereo partly shown) [GlcNAc, N-acetylglucosamine] | – | – | – | Km (GalT [2]; reported in Palcic et al., Carbohydr. Res., 159:315 (1987)): 1.3 ± 1 mM |
| CC(=O)N[C@@H]1[C@@H](O)[C@H](O[C@@H]2O[C@H](CO[C@]3(C(=O)O)C[C@H](O)[C@@H](NC(C)=O)[C@H]([C@H](O)[C@H](O)CO)O3)[C@H](O)[C@H](O)[C@H]2O)[C@@H](CO)O[C@H]1O [NeuAcα2,6Galβ1,4GlcNAc] | – | 13 | – | Km [1]: 70 mM; times less active as a substrate than the α2,3-isomer ([1]; compared with NeuAcα2,3Galβ1,4GlcNAc): about 50 times |
| CC(=O)N[C@H]1[C@H](OC[C@H]2O[C@@H](O[C@H]3[C@H](O)[C@@H](O)C(O)O[C@@H]3CO)[C@H](O)[C@@H](O)[C@H]2O)O[C@H](CO)[C@@H](O)[C@@H]1O (stereo partly shown) [GlcNAcβ1,6Galβ1,4Glc] | – | – | 13 | – |
| C[C@@H]1OC(OP(=O)(O)OP(=O)(O)OC[C@H]2O[C@@H](n3cnc4c(=O)[nH]c(N)nc43)[C@H](O)[C@@H]2O)[C@@H](O)[C@H](O)[C@@H]1O (stereo partly shown) [GDP-Fuc, guanosine 5′-diphospho fucose] | – | – | – | inhibition of α1,3/4FucT (in words) (α1,3/4Fucosyltransferase): not an inhibitor; inhibition of α1,3FucT (in words) ([1]; at concentration above 0.2 mM in the presence of 10 mM LacNAc): potent inhibitor |
| CC(=O)NC1C(O)OC(CO)C(OC2OC(CO)C(O)C(OC3(C(=O)O)CC(O)C(NC(C)=O)C(C(O)C(O)CO)O3)C2O)C1O (stereo not shown) [NeuAcα2,3Galβ1,4GlcNAc] | – | 620 | 60 | Km [1]: 100 mM; relative maximum velocity (Vrel) based on LacNAc [1]: 620% |
| Nc1nc2c(ncn2[C@@H]2O[C@H](COP(=O)(O)OP(=O)(O)O)[C@@H](O)[C@H]2O)c(=O)[nH]1 [GDP, guanosine 5′-diphosphate] | 0.05 mM | – | – | Ki ([1]; footnote of Table 3, read-out: Ki): 19000 µM; Ki ([1]; noncompetitive inhibitor versus LacNAc, read-out: Kii): 130 µM; Ki ([1]; noncompetitive inhibitor versus LacNAc, read-out: Kis): 160 µM; mode of inhibition [1]: noncompetitive inhibitor |
| NeuAcα2,3Galβ1,4GlcNAcβOallyl | – | 380 | – | – |
| Fucα1,2Galβ1,4Glc | – | – | 250 | – |
| OC[C@H]1O[C@@H](O[C@H]2[C@H](O)[C@@H](O)C(O)S[C@@H]2CO)[C@H](O)[C@@H](O)[C@H]1O (stereo partly shown) [Galβ1,4(5-thioGlc), Galβ1,4(5-thio)Glc] | – | 51 | 310 | Km [1]: 12 mM |
| C=CCO[C@@H]1O[C@H](CO)[C@@H](O[C@@H]2O[C@H](CO)[C@H](O)[C@H](O)[C@H]2O)[C@H](O)[C@H]1NC(C)=O [Galβ1,4GlcNAcβOallyl] | – | 64 | – | Km [1]: 16 mM |
| CC(=O)N[C@H]1C(O)O[C@H](CO)[C@H](O)[C@@H]1O[C@@H]1O[C@H](CO)[C@H](O)[C@H](O)[C@H]1O (stereo partly shown) [Galβ1,3GalNAc] | > 100 mM | – | – | – |
| CC1N[C@@H](CO)C(O)[C@@H]1O (stereo partly drawn) [Compound 50, (2R)-Methyl-(5S)-hydroxymethyl-(3R, 4R)-dihydroxyprollidine] | 34 mM | – | – | inhibition in combination with GDP [1]: profound, synergistic inhibition; mode of inhibition [1]: competitive inhibitor |
| CC1NC(CO)C(O)C1O (stereo not shown) [Compound 53] | 80 mM | – | – | inhibition in combination with GDP [1]: profound, synergistic inhibition; mode of inhibition [1]: competitive inhibitor |
| CC(=O)N[C@H]1C(O)O[C@H](CO)[C@H](O[C@@H]2O[C@H](CO)[C@H](O)[C@H](O)[C@H]2O)[C@@H]1O (stereo partly shown) [Galβ1,4GalNAc] | – | – | 27 | – |
| Nc1nc2c(ncn2C2OC(COP(=O)(O)OP(=O)(O)OC3OC(CO)C(O)C(O)C3O)C(O)C2O)c(=O)[nH]1 (stereo not shown) [GDP-Man, guanosine 5′-diphospho-mannose] | 2 mM | – | – | – |
| Galβ1,4GlcNAc | – | 100 | 100 | Km [1]: 35 mM |
| OC[C@H]1O[C@@H](O[C@H]2[C@H](O)[C@@H](O)C(O)O[C@@H]2CO)[C@H](O)[C@@H](O)[C@H]1O (stereo partly shown) [Galβ1,4Glc] | – | 150 | 120 | relative maximum velocity (Vrel) based on LacNAc [1]: 150% |
| O=c1ccn([C@@H]2O[C@H](COP(=O)(O)OP(=O)(O)O)[C@@H](O)[C@H]2O)c(=O)[nH]1 [UDP, uridine 5′-diphosphate] | – | – | – | Ki (GalT [3]): 460 µM |
| CC(=O)N[C@H]1[C@H](O[C@H]2[C@H](O)[C@@H](NC(C)=O)C(O)O[C@@H]2CO)O[C@H](CO)[C@@H](O)[C@@H]1O (stereo partly shown) [GlcNAcβ1,4GlcNAc] | > 50 mM | – | 23 | – |
| C=CCO[C@@H]1O[C@H](CO)[C@@H](O[C@@H]2O[C@H](CO)[C@H](O)[C@H](O)[C@H]2O)C[C@H]1NC(C)=O [Galβ1,4(3-deoxy)GlcNAcβOallyl] | – | – | – | inhibition of α1,3FucT (in words) ([1]; acceptor substrate analog): weak inhibitor |
| OC[C@H]1NC[C@H](O)[C@@H](O)[C@@H]1O [Deoxynojirimycin] | – | – | – | substrate for α1,4GalT (in words) (GalT [2]; Wong et al., J. Am. Chem. Soc., 113:8137-8145 (1991)): a substrate |
| CC(=O)N[C@H]1C(O)O[C@H](CO)[C@@H](O)[C@@H]1O[C@@H]1O[C@H](CO)[C@H](O)[C@H](O)[C@H]1O (stereo partly shown) [Galβ1,3GlcNAc] | > 50 mM | 130 | 580 | – |
| OC[C@H]1NC[C@H](O)[C@@H](O)[C@@H]1O[C@@H]1O[C@H](CO)[C@H](O)[C@H](O)[C@H]1O [Galβ1,4deoxynojirimycin] | 8 mM | – | – | IC50 (α1,3/4Fucosyltransferase; inhibitor concentration required to give 50% inhibition with 0.2 mM GDP-Fuc): 40 mM |
| CC(=O)N[C@H]1C([C@H](O)[C@H](O)CO)O[C@@](OC2[C@H](O)C(O[C@H]3C(O)C=COC3CO)OC(CO)[C@@H]2O)(C(=O)O)C[C@H]1O (stereo partly shown) [NeuAcα2,3Galβ1,4Glucal] | – | 330 | – | Km [1]: 64 mM; relative maximum velocity (Vrel) based on LacNAc [1]: 330% |

— patent US7335500B2, “Production of fucosylated carbohydrates by enzymatic fucosylation synthesis of sugar nucleotides; and in situ regeneration of GDP-fucose” (The Scripps Research Institute, priority 1991, dated 2008)
